One may read the EC50 as the concentration giving half of the maximal effect.

Each structure is given as a SMILES string.

In one experiment the test system is RSV A2. Briefly: Screening for RSV inhibition using Viral ToxGlo assay (cytopathic effect inhibition in HEp-2 cells). Format: cell-based, Respiratory Syncytial Virus (RSV). The settings on record: RSV A2 in HEp-2 cells, MOI 0.5, 72h p.i., cytopathic effect inhibition relative to virus control, Viral ToxGlo luminescence. How it is done:
Protocol for Screening Antiviral Compounds for RSV Inhibition and Cytotoxicity Using Viral ToxGlo Assay
HEp-2 cells were maintained in Eagle's minimum essential medium (EMEM) with Earle's BSS adjusted to contain 2 mM L-glutamine, 10% fetal bovine serum, 100 U/ml penicillin and 100 µg/ml streptomycin. For the purposes of the screening assay they were grown to 90% confluency, trypsinized and recovered. The trypsin was neutralised with cell culture media and cells were centrifuged at 150×g for 5 minutes before discarding the supernatant and resuspending cell pellet in assay media (EMEM with Earle's BSS adjusted to contain 2 mM L-glutamine, 2% fetal bovine serum and 100 U/ml penicillin and 100 µg/ml streptomycin). The cells were seeded into white clear-bottomed cell culture plates at a density of 1.5×10^4 cells/well in 50 μl and 4×10^3 cells/well in 25 μl for 96 well plates and 384 well plates respectively. For the media/background control column assay media only was added. Cell plates were placed in a humid chamber and incubated overnight at 37° C./5% CO2. After overnight incubation cells were checked for confluency and healthy appearance.
Test articles were made up at 10× test concentration in a maximum DMSO concentration of 10% (final assay concentration maximal 1% DMSO) and added to the cell plates in volumes of […] for 96 well plates and 5 μl for 384 well plates. For cell control and virus control wells the test article solvent only was added. Virus or assay media for cytotoxicity test wells and media/cell control wells was added immediately after test articles at an MOI of […] for 96 and 384 well plates respectively. Virus suspension was prepared by thawing RSV A2 frozen stocks and diluting to the required concentration of plaque forming units in assay media on ice.
Cell plates were further incubated inside a humid chamber for 72h p.i at 37° C./5% CO2. After the incubation period cells were observed under the microscope to check for characteristic cytopathic effect in virus control wells and healthy cells in the cell control wells. After plates were adjusted to room temperature 20/40 μl Viral ToxGlo (Promega) was added to each well of the 384/96 well cell plates. Plates were incubated at room temperature, protected from light on a plate rocker for 20 minutes before measuring the luminescence on a spectrophotometer (Biotek Synergy HTX).
For orientation: Damage to the host cells serves as the signal in cytopathic effect assays.
As to `O=C(N=C1NCCN1)c1cc(F)c(Nc2cccc(C3=NCCN3)c2)c(C2CC2)c1` [Compound 169, 3-cyclopropyl-4-{[3-(4,5-dihydro-1H-imidazol-2-yl)phenyl]amino}-5-fluoro-N-(imidazolidin-2-ylidene)benzamide], the EC50 amounted to 13.6 nM.

The experiment is the same for the next values; noted with them: human respiratory syncytial virus; RSV A2 in HEp-2 cells, MOI 0.5, 72h p.i., cytopathic effect inhibition relative to virus control, Viral ToxGlo luminescence.
As for `CC(C)NC(=O)c1cc(F)cc(Nc2c(F)cc(C(=O)N=C3NCCN3)cc2C2CC2)c1` [Compound 128, 3-cyclopropyl-5-fluoro-4-({3-fluoro-5-[(propan-2-yl)carbamoyl]phenyl}amino)-N-[imidazolidin-2-ylidene]benzamide], the EC50 was found to be 13.2 nM. As for `O=C(N=C1NCCN1)c1ccc(Nc2cccc(C(=O)NC3CCOCC3)c2)c(C2CCCC2)c1` [Compound 96, 3-cyclopentyl-N-[(2Z)-imidazolidin-2-ylidene]-4-({3-[(oxan-4-yl)carbamoyl]phenyl}amino)benzamide], the EC50 was 839 nM. For `CC(C)NC(=O)c1ccccc1Nc1ccc(C(=O)N=C2NCCN2)cc1C(C)(C)C` [Compound 54, 3-tert-butyl-N-[(2E)-imidazolidin-2-ylidene]-4-({2-[(propan-2-yl)carbamoyl]phenyl}amino)benzamide], the concentration giving a half-maximal response (EC50) is 166 nM. `O=C(N=C1NCCN1)c1ccc(Nc2cccc(OCC3COCCO3)c2Cl)c(C2CC2)c1` (stereo not shown) [Compound 23, 4-({2-chloro-3-[(1,4-dioxan-2-yl)methoxy]phenyl}amino)-3-cyclopropyl-N-[(2E)-imidazolidin-2-ylidene]benzamide]: the half-maximal effective concentration (EC50) turned out to be 30.3 nM.

On to `CC(C)C(=O)Nc1cccc(Nc2ccc(C(=O)N=C3NCCN3)cc2C(C)(C)C)c1` [Compound 37, 3-tert-butyl-N-[(2E)-imidazolidin-2-ylidene]-4-{[3-(2-methylpropanamido)phenyl]amino}benzamide], for which the half-maximal effective concentration (EC50) was 55.5 nM. On to `CC1(C(=O)Nc2cccc(Nc3ccc(C(=O)N=C4NCCN4)cc3C3CC3)c2)CC1` [Compound 21, 3-cyclopropyl-N-[(2Z)-imidazolidin-2-ylidene]-4-{[3-(1-methylcyclopropaneamido)phenyl]amino}benzamide], for which the EC50 is 25.8 nM.

As for `O=C(N=C1NCCN1)c1ccc(Nc2cccc(C(=O)NC3CCS(=O)(=O)CC3)c2Cl)c(C2CC2)c1` [Compound 94, 4-({2-chloro-3-[(1,1-dioxo-1λ^6-thian-4-yl)carbamoyl]phenyl}amino)-3-cyclopropyl-N-[(2E)-imidazolidin-2-ylidene]benzamide], the EC50 is 240 nM. As to `CC(C)=CCn1nnc(-c2cccc(Nc3ccc(C(=O)/N=C4\NCCN4C)cc3C3CC3)c2)n1` [Compound 160, 3-cyclopropyl-4-({3-[2-(3-methylbut-2-en-1-yl)-2H-1,2,3,4-tetrazol-5-yl]phenyl}amino)-N-[1-methylimidazolidin-2-ylidene]benzamide], the 50% effective concentration (EC50) was determined as 545 nM. Turning to `CC1(NC(=O)c2ccnc(Nc3ccc(C(=O)N=C4NCCN4)cc3C3CC3)c2Cl)CC1` [Compound 123, 3-chloro-2-[(2-cyclopropyl-4-{[imidazolidin-2-ylidene]carbamoyl}phenyl)amino]-N-(1-methylcyclopropyl)pyridine-4-carboxamide], the half-maximal effective concentration (EC50) amounted to 83 nM. Consider `CC(C)NC(=O)c1cc(F)cc(Nc2ccc(C(=O)N=C3NCCN3)cc2C2CC2)c1C1CC1` [Compound 148, 2-cyclopropyl-3-[(2-cyclopropyl-4-{[imidazolidin-2-ylidene]carbamoyl}phenyl)amino]-5-fluoro-N-(propan-2-yl)benzamide], for which the EC50 turned out to be 347 nM. For the compound `CC(C)(C)c1cc(C(=O)N=C2NCCN2)ccc1Nc1cccc(C(=O)NCCC2CCOC2)c1` (stereo not shown) [Compound 48, 3-tert-butyl-N-[(2E)-imidazolidin-2-ylidene]-4-[(3-{[2-(oxolan-3-yl)ethyl]carbamoyl}phenyl)amino]benzamide], the EC50 is 117 nM. Still for that read-out and setting: for `O=C1CN/C(=N\C(=O)c2ccc(Nc3cccc(OCCCC4CCCCC4)c3)c(C3CC3)c2)N1` [Compound 41, 4-{[3-(3-cyclohexylpropoxy)phenyl]amino}-3-cyclopropyl-N-[(2E)-4-oxoimidazolidin-2-ylidene]benzamide] the value was 77.2 nM; for `CC(C)(C)C1(NC(=O)c2cccc(Nc3ccc(C(=O)N=C4NCCN4)cc3C3CC3)c2)CC1` [Compound 111, 4-({3-[(1-tert-butylcyclopropyl)carbamoyl]phenyl}amino)-3-cyclopropyl-N-[(2Z)-imidazolidin-2-ylidene]benzamide], 30.4 nM. On the same count and under the same terms, next, `O=C(N=C1NCCN1)c1ccc(Nc2cccc(C(=O)NC3CCOCC3)c2Cl)c(C2CC2)c1` [Compound 50, 4-({2-chloro-3-[(oxan-4-yl)carbamoyl]phenyl}amino)-3-cyclopropyl-N-[(2E)-imidazolidin-2-ylidene]benzamide]: 136 nM; `CC(C)NC(=O)c1cccc(Nc2ccc(C(=O)/N=C3\NCC(=O)N3C)cc2C2CC2)c1` [Compound 61, 3-cyclopropyl-N-[(2E)-1-methyl-5-oxoimidazolidin-2-ylidene]-4-({3-[(propan-2-yl)carbamoyl]phenyl}amino)benzamide]: 516 nM. On to `CC(C)NC(=O)c1cccc(Nc2ccc(C(=O)N=C3NCCN3)cc2C(C)(C)C)c1` [Compound 19, 3-tert-butyl-N-[(2E)-imidazolidin-2-ylidene]-4-({3-[(propan-2-yl)carbamoyl]phenyl}amino)benzamide], for which the EC50 is 22.8 nM. With `CC(C)NC(=O)c1cccc(Nc2ccc(C(=O)/N=C3\NCC(=O)N3)cc2C(C)(C)C)c1` [Compound 49, 3-tert-butyl-N-[(2E)-4-oxoimidazolidin-2-ylidene]-4-({3-[(propan-2-yl)carbamoyl]phenyl}amino)benzamide], the EC50 came to 118 nM. As for `CC(C)CCNC(=O)c1ccccc1Nc1ccc(C(=O)N=C2NCCN2)cc1C1CC1` [Compound 62, 3-cyclopropyl-N-[(2E)-imidazolidin-2-ylidene]-4-({2-[(3-methylbutyl)carbamoyl]phenyl}amino)benzamide], the concentration giving a half-maximal response (EC50) turned out to be 641 nM. `CC1(NC(=O)c2ccnc(Nc3c(F)cc(C(=O)N=C4NCCN4)cc3C3CC3)c2Cl)CC1` [Compound 136, 3-chloro-2-[(2-cyclopropyl-6-fluoro-4-{[imidazolidin-2-ylidene]carbamoyl}phenyl)amino]-N-(1-methylcyclopropyl)pyridine-4-carboxamide]: the EC50 came out at 32 nM. Regarding `CC(C)CCNC(=O)c1cccc(Nc2ccc(C(=O)N=C3NCCN3)cc2C(C)(C)O)c1` [Compound 44, 3-(2-hydroxypropan-2-yl)-N-[(2E)-imidazolidin-2-ylidene]-4-({3-[(3-methylbutyl)carbamoyl]phenyl}amino)benzamide], the EC50 stood at 90.4 nM. Regarding `CC(C)NC(=O)c1ccccc1Nc1ccc(C(=O)N=C2NCCN2)cc1C1CC1` [Compound 70, 3-cyclopropyl-N-[(2E)-imidazolidin-2-ylidene]-4-({2-[(propan-2-yl)carbamoyl]phenyl}amino)benzamide], the half-maximal effective concentration (EC50) was 1150 nM. On to `CCC1(NC(=O)c2cccc(Nc3ccc(C(=O)N=C4NCCN4)cc3C3CC3)c2)CC1` [Compound 31, 3-cyclopropyl-4-({3-[(1-ethylcyclopropyl)carbamoyl]phenyl}amino)-N-[(2Z)-imidazolidin-2-ylidene]benzamide], for which the 50% effective concentration (EC50) was determined as 47.7 nM. With `CC1(C(=O)Nc2cccc(Nc3ccc(C(=O)N=C4NCCN4)cc3C3CC3)c2)COC1` [Compound 161, N-{3-[(2-cyclopropyl-4-{[imidazolidin-2-ylidene]carbamoyl}phenyl)amino]phenyl}-3-methyloxetane-3-carboxamide], the EC50 was 690 nM. In the case of `O=C(N=C1NCCN1)c1ccc(Nc2cccc(OCCCC3CCCCC3)c2)c(C2CC2)c1` [Compound 22, 4-{[3-(3-cyclohexylpropoxy)phenyl]amino}-3-cyclopropyl-N-[(2E)-imidazolidin-2-ylidene]benzamide], the EC50 is 26 nM. As for `CC1(NC(=O)c2cccc(Nc3c(C#N)cc(C(=O)N=C4NCCN4)cc3C3CC3)c2)CC1` [Compound 149, 3-cyano-5-cyclopropyl-N-[imidazolidin-2-ylidene]-4-({3-[(1-methylcyclopropyl)carbamoyl]phenyl}amino)benzamide], the 50% effective concentration (EC50) was 45.8 nM. For the compound `O=C(N=C1NCCN1)c1cc(F)c(Nc2cccc(C(=O)N3CCOCC3)c2F)c(C2CC2)c1` [Compound 158, 3-cyclopropyl-5-fluoro-4-{[2-fluoro-3-(morpholine-4-carbonyl)phenyl]amino}-N—[imidazolidin-2-ylidene]benzamide], the half-maximal effective concentration (EC50) is 6.8 nM. Regarding `N#CC1(NC(=O)c2cccc(Nc3c(F)cc(C(=O)N=C4NCCN4)cc3C3CC3)c2)CC1` [Compound 127, 4-({3-[(1-cyanocyclopropyl)carbamoyl]phenyl}amino)-3-cyclopropyl-5-fluoro-N-[imidazolidin-2-ylidene]benzamide], the EC50 is 101 nM.

The values are drawn from US12617756B2 (ABIVAX, priority 2019, dated 2026).
